A short description of data set [1]: Optical absorption (UV-Vis-NIR) in ethanol. Type of data set: physicochemical. Here is the method: The UV-Vis-NIR optical absorption was recorded with an Agilent Cary5000 UV-Vis-NIR Spectrophotometer in the determination of the molar absorption coefficient and with Shimadzu UV-2100 spectrometer in routine measurements. The absorption spectra were recorded in the wavelengths from 300 nm up to 800 nm.
This is indicative of negligible aggregation between the molecules, which exist mostly as monomers at these concentrations in the solvents studied. Table 1 presents the infrared molar absorption coefficient (εmax) and wavelength maximum in ethanol of a typical carboxamide halogenated bacteriochlorin derivative of Formula (I). The same table also presents triplet lifetimes (τT) in air and N2 saturated solutions, fluorescence lifetime (τS), the quantum yields of fluorescence (ΦF), triplet state formation (ΦT), and singlet oxygen generation (ΦΔ) in ethanol, and photodegradation quantum yield (Φpd) in methanol:PBS (3:2). Triplet decays were clearly mono-exponential and in air-saturated ethanol the triplet lifetimes were in the range of 200 to 300 nanoseconds. Such values are consistent with diffusion limited energy transfer from the triplet state of the photosensitizer to molecular oxygen through a charge-transfer interaction (8). The absorption intensity of the test compounds in the photobleaching studies followed a mono-exponential decrease as a function of the illumination time.

Data set [2] can be described thus: Fluorescence emission, quantum yield and lifetime. Type of data set: physicochemical. To be noted: in ethanol. On the procedure: The fluorescence emission spectra were recorded in the homemade setup composed of a Horiba-Jobin Fluoromax 4, used to excite the samples, connected to a sample holder through an optical fiber. In the sample holder, perpendicular to excitation fiber, an optical fiber is connected to drive the emission light to the spectrophotometer detector Avantes model SensLine, provided with AvaSoft 7.7.2. The excitation slit was set at 2 mm and the integration time was 3 s, with average number of 3. The spectra were collected from 200 nm up to 1100 nm using standard cuvettes of 1 cm of optical path. Fluorescence quantum yields (ΦF) were obtained comparing the integrated fluorescence of the samples with that of a reference fluorimetric compound with known ΦF.
The fluorescence lifetime was determined in homemade equipment composed of a LED that produces a light pulse for exciting the sample, a sample holder, detector and optics. […]
This is indicative of negligible aggregation between the molecules, which exist mostly as monomers at these concentrations in the solvents studied. […] The same table also presents triplet lifetimes (τT) in air and N2 saturated solutions, fluorescence lifetime (τS), the quantum yields of fluorescence (ΦF), triplet state formation (ΦT), and singlet oxygen generation (ΦΔ) in ethanol, and photodegradation quantum yield (Φpd) in methanol:PBS (3:2). […]

Data set [3] in a line: Skin permeation: amount of photosensitizer in pig skin after topical formulation. The conditions noted are these: for Concentration average: 6 experiments. Format: in vitro ADME. Here is the method: Skin permeation was evaluated using a topical formulation containing benzyl alcohol (23%), Kolliphor EL (17%), Transcutol (50%) and water (10%). The photosensitizer added to this formulation corresponded to 1.85% of the mass before its addition, and the gelling agent (Aerosil 200) added corresponded to 5% of the mass before its addition. The photosensitizer was first dissolved in Transcutol and exposed to 3 min of vortex and 5 min of ultrasounds. A mixture of benzyl alcohol and Kolliphor EL was then added. Immediately after, it was mixed in an IKA MIXER at 200 rpm for 5 min and water was added drop-by-drop for 10 min. Finally, the gelling agent, Aerosil 200, was mixed in and the microemulsion gel was obtained. Skin permeation studies were performed in pig skin using samples collected from 5 months old pigs. The hair was removed as well as the underlying fatty layer, before the permeation studies.
This example describes the permeation of carboxamide bacteriochlorin with formula IX in pig skin. The topical formulation and the animal model were described in the Materials and Methods section. The permeation was assessed both in terms of the amount of photosensitizer in the skin after designated times of contact between the topical formulation and the skin (incubation time) and in terms of the depth of the permeation in the skin.
The assessment of the amount of carboxamide bacteriochlorin with formula IX in the skin after various incubation times involved the following steps: (i) application of 0.30 ml of formulation in 1 cm^2 areas of minipig skin to make 6 independent measurements for the incubation times of 30, 60 and 120 minutes; (ii) cleaning of the surface of the skin at the end of the incubation times; (iii) cutting the skin in small pieces and maceration in 2 ml of dichloromethane with the aid of dispersing machine; (iv) extraction with 10 ml of dichloromethane in a falcon tube for six hours; (v) dilution by a factor of 5 with ethanol. The volume of 200 μl of the test solution was added in triplicate to 96 well plate and fluorescence intensity was detected using a Synergy HT microplate reader form Biotek (California, USA), with an excitation filter of 508/20 nm and emission filter of 760/35 nm, against a calibration curve. The signal of a blank obtained with the same cleaning method was subtracted from the signal of the sample and the concentration of the photosensitizer in each sample was obtained with the calibration curve. A summary of the results can be seen in Table 2.

Data on one compound can be found in US10450322B2, “Low molecular weight derivatives of carboxamide halogenated porphyrins, namely chlorins and bacteriochlorins, and their applications thereof” (LUZITIN, S.A., priority 2015, dated 2019).

As to `CNC(=O)c1c2nc(c(-c3c(F)cccc3F)c3ccc(cc4nc(c(-c5c(F)cccc5F)c5ccc1[nH]5)CC4)[nH]3)CC2` [formula IX, 5-methylcarboxamide-10,20-bis-(2,6-difluorophenyl)bacteriochlorin], the “λ (wavelength of maximum infrared absorption)” value in data set [1] came to 734 nm. Further, in data set [1] (at 734 nm), the “ε (λ) molar absorption coefficient” value is reported as 69 10^3 M^−1 cm^−1. Moreover, the “ΦF fluorescence quantum yield” value in data set [2] was determined as 0.20. The τS fluorescence lifetime in data set [2] came to 3.2 ns. Also, the “flux of the photosensitizer to the skin Jmax” value in data set [3] (attained in 1.5 hours, topical formulation) is listed as 4×10^−8 mol/(cm^2 h). Besides, the “Mass in the skin” value in data set [3] (incubation time 30 min) was 5.41 ± 1.33 μg/cm^2; in data set [3] (incubation time 60 min), 19.9 ± 5.12 μg/cm^2; in data set [3] (incubation time 120 min) it was 37.2 ± 7.45 μg/cm^2. The Concentration average in data set [3] (incubation time 30 min) was found to be 0.909 µM; in data set [3] (incubation time 60 min), 3.34 µM; in data set [3] (incubation time 120 min) it was 6.26 µM.
